“Also recorded” adds a separate entry of the source.
Experiments:
[1] = system: FGF-inducible Response Element (FiRE); experiment: FiRE CAT assay with AP-1 activating agents in stable 3T3NIH cells; format: cell-based, mouse; conditions: minimal promoter, agents known to activate AP-1
Method: FIG. 24. […] Different agents known to induce fos-jun complexes and activate AP-1 driven promoters, were tested for FiRE activation in CAT assay with the minimal promoter transferred in stable 3T3NIH cells in the presence of protein kinase C activator (TPA, 10 mm), protein phosphatase 1 and 2 inhibitors (DA and calycalin A), a cAMP activator (forskolin), or a tyrosine phosphatase inhibitor (orthovanadate).
Agents Activating AP-1 Are Not Sufficient for FiRE Activation. Since FiRE contains AP-1 transcription factors, whose activation is well characterized, we tested chemicals known to cause AP-1 dependent gene activation. These included the protein kinase C (PKC) activator 12-O-tetradecanoylphorpol-13-acetate (TPA), protein-phosphate-1 and -2 inhibitors okadaic acid and calyculin A, cAMP activator forskolin and tyrosine kinase phosphatase inhibitor orthovanadate (FIG. 24a).

[2] = system: syndecan-1 expression in MCF-7 cells; experiment: Syndecan mRNA expression in MCF-7 cells under estrogen and toremifene; format: cell-based, human; conditions: MCF-7 cells exposed to estrogen, then anti-estrogen treatment
Method: (§1) The steroid-responsive human breast cancer cell line MCF-7 was used to study the expression of human syndecan under different growth conditions regulated by estrogen and anti-estrogen. Cells were plated at a density of 1.2×10^6 cells/100 mm of plastic culture dish and grown as monolayer cultures in 10 ml per dish of phenol red-free DMEM medium with 5% dextran/charcoal treated fetal calf serum (DS-FCS), 2 mM L-glutamine and 3 μg/ml insulin. […] The cells were cultured for 6 days, and the media were changed every second day. For RNA extraction, cells were washed in situ with PBS and scraped from the plates in 4 M guanidine isothiocyanate.

[3] = system: MCF-7 cells; experiment: Growth behavior of MCF-7 cells under estrogen and toremifene; format: cell-based, human; conditions: MCF-7 cells exposed to estrogen, then toremifene
Method: as §1

[4] = system: FGF-inducible Response Element (FiRE); experiment: pFiRE CAT reporter activation by growth factors in 3T3NIH cells; format: cell-based, mouse; conditions: pFiRE transfected 3T3NIH cells; 10 ng/ml growth factor (2 ng/ml TGF-β) or 5% FCS, 2 days
Method: Each of these plasmids was transiently transfected into 3T3NIH cells, using the calcium phosphate precipitation method (Chen and Okayama, Mol. Cell Biol. 7:2745-2752 (1987)) as follows. For transient transfections NIH3T3 cells were plated at equal density on six-well plates (Falcon) two days before transfection. Plasmid DNA was transfected into cells by calcium phosphate method (Chen and Okayama, Mol. Cell Biol. 7:2745-2752 (1987)). A β-galactosidase expressing plasmid (pSV-β-galactosidase, Promega) was co-transfected with CAT constructs to monitor transfection efficiencies. Three parallel transfections were used in every assay. Directly after transfection growth factors were added, media change the next day and cells were harvested after two days. CAT activities were measured by liquid scintillation and β-galactosidase activities spectrophotometrically at 420 nm as described by Vihinen et al., J. Biol. Chem 268:17261-17269 (1993)). As a control, other samples of the cells transfected with each plasmid were treated with buffer without FGF-2 for the same time periods.
For the gene expression analysis the fragments of the syndecan-1 upstream region were subcloned from mouse genomic clones into the XbaI site of the pCATProm vector in which a mouse syndecan-1 promoter region (−1310 to +140) was fused to the CAT reporter gene (Vihinen et al., J. Biol. Chem. 271:12532-12541 (1996)). The pX-HIIICAT plasmid was prepared by cloning HindIII-XhoI promoter fragment (−2400 to +140 bp) into the promoterless pCAT basic vector (Promega). For pXSp1 and 2 plasmids, SphI fragments −11.4 to −10.5 kb and −10.5 to −9.4 kb, respectively) were deleted from pXb6CAT (−11.6 to −9.4 kb). Constructs pXS2, pXB3 and pXX1 were generated by ligating SphI-EarI/blunt (−10.5 to −10.1 kb), EarI/blunt fragment (−10.1 to −9.8 kb) and EarI/blunt-XbaI (−9.8 to −9.4 kb) from pXSpI into SphI-AccI/blunt, AccI/blunt or XbaI-SphIlblunt sites, respectively, into the pCATProm vector. Blunt ended fragments were made by T4 polymerase (Promega). For FiRE and FiREREV a PstI-StyI/blunt fragment was subcloned into PstI-EcoRV or PstI-SmaI sites of the pBluescript vector and then transfected to Xba-SphI sites in pCATProm vector. These constructs were then used to transient transfect NIH3T3 cells as described supra, and CAT activity was measured.
Effect of Various Growth Factors on Enhancer Activation in NIH3T3 Cells. Plasmid pFiRE was transfected into 3T3NIH cells as described, supra. The cells were starved in DMEM medium supplemented with 5% fetal calf serum to about 70% confluence. Fetal calf serum was then replaced with 2% carboxy-methyl-Sephadex eluted fetal calf serum (CMS) 12 hrs before adding the growth factors. Various growth factors in the same medium, 5% fetal calf serum (FCS) supplemented medium or a control containing the medium, without any added growth factors were incubated with the transfected cells for 2 days, and CAT activity was measured. The effect of 10 ng/ml of FGF-2, FGF-1, FGF-4, FGF-7 (KGF), EGF, IGF1, TGFα, IFNγ, and PDGF and 2 ng/ml TGF-β were tested. The human recombinant growth factors were purchased from Peprotech (FGF-1, -2, and -7), Boehringer (FGF-2) or from Calbiochem (PDGF) TGF-β was purchased from Sigma. The effect of the added growth factors and FCS on DNA synthesis was also tested by a 125-IdU incorporation assay. […] Radioactivity was measured using a gamma counter (Wallac).

[5] = system: 3T3NIH cells; experiment: 125-IdU incorporation (DNA synthesis) assay in 3T3NIH cells; format: cell-based, mouse; conditions: pFiRE transfected 3T3NIH cells; 10 ng/ml growth factor (2 ng/ml TGF-β) or 5% FCS
Description: Effect of Various Growth Factors on Enhancer Activation in NIH3T3 Cells. Plasmid pFiRE was transfected into 3T3NIH cells as described, supra. The cells were starved in DMEM medium supplemented with 5% fetal calf serum to about 70% confluence. Fetal calf serum was then replaced with 2% carboxy-methyl-Sephadex eluted fetal calf serum (CMS) 12 hrs before adding the growth factors. Various growth factors in the same medium, 5% fetal calf serum (FCS) supplemented medium or a control containing the medium, without any added growth factors were incubated with the transfected cells for 2 days, and CAT activity was measured. The effect of 10 ng/ml of FGF-2, FGF-1, FGF-4, FGF-7 (KGF), EGF, IGF1, TGFα, IFNγ, and PDGF and 2 ng/ml TGF-β were tested. The human recombinant growth factors were purchased from Peprotech (FGF-1, -2, and -7), Boehringer (FGF-2) or from Calbiochem (PDGF) TGF-β was purchased from Sigma. The effect of the added growth factors and FCS on DNA synthesis was also tested by a 125-IdU incorporation assay. This cell proliferation assay was carried out by incubating cells for 4-6 hrs with 0.25 μCi/ml 5-[^125I]iodo-2′-deoxyuridine (IdU, Amersham), washed several times with PBS and solubilized in 1 M NaOH. Radioactivity was measured using a gamma counter (Wallac).

[6] = system: FGF-inducible Response Element (FiRE); experiment: FiRE / Syn Prom CAT reporter in MCA3D keratinocytes; format: cell-based; conditions: MCA3D mouse keratinocytes transfected with FiRE construct
Method: The cells used for proximal promoter constructs were 3T3 NIH, S115 (either hormone-treated or not) and nMuMG cells. For enhancer constructs we used 3T3 NIH cells grown in 2% CMS medium and MCA 3D cells grown in Ham's medium. 3T3 NIH cells were also used to test the effect of growth factors in 2% CMS medium with 10 ng/ml FGF-2 and 2ng/ml TGFβ-1. MCA 3D cells were used to test the effect of 10 ng/ml KGF.
FiRE is Induced Selectively by FGF-7 in Keratinocytes. The ability of FiRE to enhance transcription was tested in the mouse keratinocyte cell line MCA3D (Kuliz-Martin et al., Carcinogenesis 4:1367-1377 (1983)). MCA3D cells were transfected as described supra for mouse NIH3T3 cells. Following transfection, the cells were treated with fetal calf serum, PDGF, FGF-1, FGF-2, and FGF-7 as described supra for the NIH3T3 cells.

[7] = system: syndecan-1 gene; experiment: Syndecan-1 mRNA quantification in 3T3NIH cells exposed to FGF-2; format: cell-based, mouse; conditions: TGF-β alone
Description: Northern Blot—RNA was isolated from 3T3 and NMuMG cells using 4 M guanidine isothiocyanate and CsCl density centrifugation (Chirgwin et al., Biochemistry 18:5294-5299 (1979)). RNA samples were size-separated on a 1% agarose formaldehyde gel, transferred to a GeneScreen Plus™ membrane (New England Nuclear) and hybridized with a multi-prime (Amersham) labeled partial cDNA clone for mouse syndecan (PM-4) (Saunders et al., J. Cell Biol. 108:1547-1556 (1989)). After hybridization, the membrane was washed in 2×SSC and 1.0% SDS at 65° C. (high stringency conditions). For rehybridization with glyceraldehyde-3-phosphate-dehydrogenase (GAPDH; Fort et al., Nucleic Acid Res. 13:1431-1442 (1985)), the bound PM-4 probe was removed as recommended by the manufacturer of the filter (NEN).
Following incubation with FGF-2, syndecan MRNA was isolated and quantified. Control incubations without FGF-2 were also performed. Syndecan mRNA was isolated and quantified […] FGF-2 treatment following 6, 12, and 24 hr incubations. The quantification of syndecan mRNA production can be seen in FIG. 11a. GAPDH mRNA was used as a loading control. […] The enhancement appears to be maximal at about 6 hrs of FGF-2 incubation, and decreases thereafter. In the Figure, two individual exposures for each time point are presented.

Molecule	FiRE activation (CAT assay) [1]	FiRE enhancer activation (CAT reporter activity) [4]	DNA synthesis / cell proliferation (125-IdU incorporation) [5]	also measured
CCCCCCCCCCCCCC(=O)O[C@@H]1[C@@H](C)[C@@]2(O)[C@@H](C=C(CO)C[C@]3(O)C(=O)C(C)=C[C@@H]23)[C@H]2C(C)(C)[C@]12OC(C)=O [TPA, 12-O-tetradecanoylphorpol-13-acetate]	none of the other compounds known to induce immediate early genes fos and jun and AP-1 driven promoters, were able to activate FiRE; also recorded: do not activate			
COC[C@@H]([C@H](O)[C@H](O)C(=O)NCC[C@H](C)c1nc(/C=C/C[C@@H]2O[C@]3(C[C@@H](O)[C@@H]2C)O[C@H]([C@H](C[C@H](O)[C@H](C)[C@H](O)[C@H](C)/C=C(C)/C(C)=C/C=C/C(C)=C\C#N)OC)[C@H](OP(=O)(O)O)C3(C)C)co1)N(C)C [calyculin A]	none of the other compounds known to induce immediate early genes fos and jun and AP-1 driven promoters, were able to activate FiRE			
C=C1[C@@H](O)[C@@H]2O[C@]3(CC[C@H](/C=C/[C@@H](C)[C@@H]4CC(C)=C[C@@]5(O[C@H](C[C@@](C)(O)C(=O)O)CC[C@H]5O)O4)O3)CC[C@H]2O[C@@H]1[C@@H](O)C[C@H](C)[C@H]1O[C@@]2(CCCCO2)CC[C@H]1C [okadaic acid]	none of the other compounds known to induce immediate early genes fos and jun and AP-1 driven promoters, were able to activate FiRE			
[O]=[V]([O-])([O-])[O-] [orthovanadate]	resulted in activation of FiRE			
CN(C)CCOc1ccc(/C(=C(/CCCl)c2ccccc2)c2ccccc2)cc1 [toremifene]				syndecan-1 expression [2]: reverse their lowered syndecan expression; also recorded: restored syndecan-1 expression to levels close to that found in cells not exposed to estrogen; growth behavior of cells [3]: aided the cells in maintaining their normal growth behavior
EGF: epidermal growth factor (NSDSECPLSHDGYCLHDGVCMYIEALDKYACNCVVGYIGERCQYRDLKWWELR; Epidermal growth factor; UniProt P01133 971-1023, looked up)		no significant enhancer activation; also recorded: no effect on enhancer activity	significant increase in DNA synthesis; also recorded: enhanced cell proliferation to a similar extent as FGF-2	
FGF-1: human recombinant growth factor, FGF family member		did not activate or suppress; also recorded: lower effect	significant increase in DNA synthesis	FiRE activation [6]: failed to activate FiRE; also recorded: did not activate FiRE
IGF: growth factor IGF1 tested at 10 ng/ml		no effect on enhancer activity	enhanced cell proliferation to a similar extent as FGF-2	
PDGF		no significant enhancer activation; also recorded: no effect on enhancer activity	significant increase in DNA synthesis; also recorded: enhanced cell proliferation to a similar extent as FGF-2	FiRE activation [6]: failed to activate FiRE; also recorded: did not activate FiRE
TGF-β: transforming growth factor beta; porcine TGFβ1		no significant enhancer activation	significant increase in DNA synthesis	activation of the syndecan-1 gene [7]: cannot activate the syndecan-1 gene
